Measurements reported in ChEMBL document CHEMBL3507680, “University of Dundee, Gates Library screen for HepG2 cell viability”.

Assay: Human HepG2 cell viability assay in 384 well format
Format: toxicity, cell-based
Parameters: dose 125 nL, time 70.5 hour; concentration not given beside the values
Settings: HepG2 cells, read-out: Inhibition

SMILES | cytotoxicity at 70.5 h [%]
Fc1ccc(C2CN(CCc3ccncc3)CCO2)cc1 (centres undefined) | 14.4
O=C(Cc1ccc(F)cc1)NCCNS(=O)(=O)C1CCCC1 | -8.77
c1ccc(C2CN(CCc3ccncc3)CCO2)cc1 (centres undefined) | -9.13
Cc1csc(CNC(=O)Nc2ccc3c(c2)OCO3)n1 | -7.99
Cc1cc(C(=O)Nc2ccn(CCCN3CCCC3)n2)no1 | 1.38
O=C(NCC(CO)Cc1cccc(OC(F)(F)F)c1)c1cnccn1 (centres undefined) | 19.2
CCc1cnc(CCNS(C)(=O)=O)s1 | -6.67
O=C(NCCn1cnnc1C1CC1)c1c(O)cc(F)cc1F | -11.9
O=C(NCC1CCC2(CC1)OCCO2)c1cccc(-n2cccn2)c1 | 19.6
CC(C)(C)OC(=O)N1CCN(S(=O)(=O)CCCC#N)C2(CCCCC2)C1 | -4.48
CC(C)(NS(C)(=O)=O)c1nc(-c2ccc(F)c(F)c2)no1 | -5.95
Cc1ccc(-c2noc(C(C)(C)NS(C)(=O)=O)n2)cc1F | -2.69
Cc1occc1C(=O)N1CCCS1(=O)=O | -12
CNC(=O)NCC(CO)Cc1ccccc1OC(F)(F)F (centres undefined) | -5.84
COc1cccc(CNc2nnc(C(C)(C)C)o2)c1OC | -11.6
Cc1cnc(CN2CCN(c3ccnc(-c4ccccc4)n3)CC2)cn1 | -10.6
O=S(=O)(N1CCCC1)N(Cc1ccccc1)CC1CCCO1 (centres undefined) | -7.82
CCN(CC1CCCO1)S(=O)(=O)N1CCCCCC1 (centres undefined) | -8.65
Cc1noc(C)c1CN1CCN(c2ccnc(-c3ccccc3)n2)CC1 | 26.5
Clc1ccccc1C1CN(CCc2ccncc2)CCO1 (centres undefined) | -6.68
CCc1nccn1CC(=O)Nc1cccc(C(=O)OC)c1 | -5.31
Cc1cc(C(=O)Nc2ccn(CCCN3CCCC3)n2)c(C)o1 | -0.537

SMILES | cytotoxicity at 70.5 h [%]
CC1CN(CCc2ccncc2)CCO1 (centres undefined) | 3.7
CCC(=O)Nc1ccc(F)c(S(=O)(=O)NC(C)(C)C)c1 | 8.07
Cc1cn2c(n1)C(CNCc1ccc(C)s1)CCC2 (centres undefined) | 8.09
Cc1ccccc1CN(C)C(=O)c1ccoc1 | 3.46
Cc1ccc(CS(=O)(=O)Cc2nc(N)nc(N(C)C)n2)cc1 | 0.995
CC(C)c1ccc(S(=O)(=O)Cc2nc(N)nc(N(C)C)n2)cc1 | -1.91
CC(C)(C)c1cnc(CN2CCC(NC(=O)Nc3ccccc3)CC2)o1 | 15.4
CCCC(C)NC(=O)c1ccc(-c2ccco2)[nH]c1=O (centres undefined) | -2.99
CCCN(CC1CC1)C(=O)Cn1ccccc1=O | -3.4
CCC(=O)N1CCN(C(=O)NC2CCc3ccccc3C2)CC1 (centres undefined) | -4.1
CC(C)(C)c1cnc(CN2CCC(NC(=O)C3CCOCC3)CC2)o1 | -5
Nc1cc2c(nn1)CCN(C(=O)c1csc(-c3ccco3)n1)C2 | -4.34
O=C(NC1CCc2ccccc2C1)N1CCN(C(=O)C2CCC2)CC1 (centres undefined) | -5.12
COC(=O)c1ccc(C(=O)NCc2ccc(Br)cc2)cn1 | -2.31
Cn1cnc(-c2nc(C(=O)NCCN3CCOCC3)c3ccccn23)c1 | -2.81
Cn1cnc(-c2nc(C(=O)NCCN3CCCC3)c3ccccn23)c1 | -5.67
CCC(=O)N1CCc2onc(CNS(C)(=O)=O)c2C1 | 9.89
CCn1c2c(ccc1=O)CC(NCc1cnn(C)c1)CC2 (centres undefined) | -4.95
CS(=O)(=O)NCc1noc2c1CN(C(=O)C1CC1)CC2 | -7.86
CN1CCN(Cc2cn3c(n2)CN(Cc2ccccn2)CC3)CC1 | -9.35
CCOCC1c2c(ncn2C)CCN1C(=O)c1ccoc1 (centres undefined) | -17.6
COC[C@@H]1CCC[C@@]12CN(C(=O)C1CCOCC1)CCO2 | -7.08

SMILES | cytotoxicity at 70.5 h [%]
CCC(=O)N1CCC2(CC1)CC(CC(=O)N(C)C)c1ccc(F)cc12 (centres undefined) | -1.89
CN1CCC2(CC1)CN(C(=O)c1cccnc1)c1ccc(Cl)cc12 | -10.6
CS(=O)(=O)N1CCC2(CC1)CC(NCc1ccccn1)c1ccccc12 (centres undefined) | -9.6
CCOCc1cnc2n1CCN(C(=O)c1cccc3c1OCCO3)C2C (centres undefined) | -5.93
CC(C)N1Cc2c(C(=O)N3CCN(C)CC3)nn(C)c2C1 | -0.433
COCC(=O)NCc1cc(=O)n2c(n1)CN(Cc1cccs1)CCC2 | -6.99
O=C(COc1ccc(F)cc1)N1CCO[C@H]2[C@@H](OCC3CC3)CC[C@@H]21 | -6.33
CO[C@@H]1CC[C@H]2[C@H]1OCCN2C(=O)COc1ccc(C)cc1 | -4.98
CCC1=N[C@@]2(CC[C@@H]3CN(CC)C[C@@H]32)C(=O)N1C | 7.11
O=C(c1ncccn1)N1C[C@@H]2COC[C@]2(COc2cccnc2)C1 | -4.57
CO[C@H]1CC[C@H]2[C@H]1OCCN2C(=O)CCOc1ccccc1 | -2.84
CCN1CC[C@@H]2OC[C@H](C(=O)NCc3cccs3)C[C@@H]2C1 | 45.7
CN(C)C(=O)CN1CCC2(COCc3cnc(-c4ccccc4)nc32)C1 (centres undefined) | -6.03
Cn1ccc(-c2cc(C(=O)N3CCCCC3)c3ccccn23)n1 | 4.75
O=C(N[C@@H]1CN(Cc2ccco2)[C@@H]2CCCO[C@@H]21)c1cscn1 | -5.42
O=C(C1CCC1)N1CC[C@@H]2CN(Cc3cccnc3)S(=O)(=O)[C@@H]2CC1 | -4.67
COCC(=O)N1CC[C@@H]2CN(Cc3cccnc3)S(=O)(=O)[C@@H]2CC1 | -2.46
CS(=O)(=O)NC[C@]12COC[C@H]1CN(C(=O)N1CCCC1)C2 | -4.24
O=C(c1ccccc1)N1CC[C@H]2C[C@@H](c3nnc(C4CC4)o3)O[C@@H]2C1 | -4.88
CS(=O)(=O)NC[C@]12COC[C@H]1CN(C(=O)CC1CCCC1)C2 | -13.4
Cc1ccoc1C(=O)N1CC[C@H]2C[C@H](c3nnc(C4CC4)o3)O[C@@H]2C1 | -11.4
Cc1cccc(CO[C@@H]2CC[C@H]3[C@H]2OCCN3Cc2ccoc2)n1 | -11.3

SMILES | cytotoxicity at 70.5 h [%]
O=C(c1ccoc1)N1CC[C@H]2C[C@@H](c3nnc(C4CC4)o3)O[C@@H]2C1 | -12
O=C(c1ccccc1)N1CC[C@H]2C[C@H](c3nnc(C4CC4)o3)O[C@@H]2C1 | -9.97
CN(CCO)C[C@@H]1CN(C(=O)Cc2ccc3ccccc3c2)C[C@@H]1CO | -4.17
COCc1nc(CNC2CCCC(C)(C)C2)no1 (centres undefined) | -9.03
CC1(C)C(C(=O)NCCC2CN(Cc3c[nH]cn3)CCO2)C1(C)C (centres undefined) | -13.9
Cc1ccc(Sc2ccc(CN3CCC4(CCCNC4=O)C3)o2)cc1 (centres undefined) | 5.69
Cc1nnc(SCCCNC(=O)Nc2ccc3c(c2)OCO3)s1 | 11.4
CCC(=O)N1CCCC(c2nc(-c3cccnn3)no2)C1 (centres undefined) | -0.455
Cc1cc(CN2C[C@H]3CC[C@@H]2CN(Cc2c(C)noc2C)C3)ccc1F | -5.96
N#Cc1ccc(NC(=O)C2CSCN2)cc1 (centres undefined) | -6.81
c1ccc(COC[C@H]2CCC[C@@]23CNCCO3)nc1 | 15.4
c1ccc(COC[C@@H]2CCC[C@@]23CNCCO3)nc1 | 14.4
COC[C@@]12CCC[C@@H]1CN(C(=O)Cc1ccccn1)C2 | 9.13
CCOC1COC2(CCN(CC3CCOCC3)CC2)C1 (centres undefined) | 14.7
CO[C@H]1CN(CC2CCOCC2)[C@@H]2CCCO[C@H]12 | -7.16
CS(=O)(=O)N1CCC2(CC1)CC(NCC1CC1)c1ccccc12 (centres undefined) | -7.3
O=S(=O)(C1CC1)N1CCc2ncnc(N3CCCC3)c2CC1 | -14.9
COC1COC2(CCN(CC3CC3)CC2)C1 (centres undefined) | -12.5
Cn1cc(CNC2CC3(CCN(S(C)(=O)=O)CC3)c3ccccc32)cn1 (centres undefined) | -11.7
CC(=O)N1CCC2(CC1)CN(C(=O)c1cccnc1)c1ccc(F)cc12 | -3.83
CCO[C@H]1CN(CC2CCOCC2)[C@@H]2CCCO[C@H]12 | 9.78
O=C(N1CCCC1)N1C[C@H]2CCC[C@@]2(COCc2ccccn2)C1 | -10.8

SMILES | cytotoxicity at 70.5 h [%]
Cc1cccc(CN2C[C@@H]3COC[C@]3(CNC(=O)C3CC3)C2)c1 | -9.63
NC(=O)N1CCC2(CCN(C(=O)c3cccnc3)CC2)C1 | 0.925
Cc1ccc(CN2CCC3(CC2)CCN(C(=O)c2cccnc2)C3)o1 | -5.87
COCCN1CCCn2c(nc(CNC(=O)COC)cc2=O)C1 | -2.45
CCC(C)N1Cc2c(C(=O)N3CCOCC3)nn(C)c2C1 (centres undefined) | -6.15
COCC(=O)NCc1cc(=O)n2c(n1)CN(Cc1ccccc1)CCC2 | 2.31
O=C(C1CCC1)N1CC[C@H](O)[C@@H]1Cc1cccnc1 | 1.53
O=C(C1=CCCC1)N1C[C@@H]2COC[C@]2(COc2ncccc2F)C1 | 6.81
CCO[C@@H]1CC[C@H]2[C@H]1OCCN2Cc1ccoc1 | -1.39
CN1CCO[C@@H]2CN(C(=O)Cc3cccs3)CC[C@@H]2C1 | -2.05
CN(C)C1CCN(C(=O)c2cc(-c3ccn(C)n3)n3ccccc23)CC1 | -6.13
CC(C)CN1CCC2(COCc3cnc(-c4ccccc4)nc32)C1 (centres undefined) | -3.09
Cn1cc(CNC2CCc3c(ccc(=O)n3Cc3cccnc3)C2)cn1 (centres undefined) | -14.4
COCC1CC2(CCN(c3ccccn3)CC2)CN1C(C)C (centres undefined) | -11.6
c1ccc(CO[C@@H]2CN(Cc3nccs3)[C@@H]3COC[C@@H]32)nc1 | -7.21
c1cncc(CO[C@H]2CN(Cc3ccco3)[C@@H]3COC[C@H]23)c1 | -3.78
CN(Cc1cccnc1)[C@@H]1CN(C(=O)c2ccno2)[C@@H]2CCCO[C@H]12 | -5.28
COCCN1CCc2c(c(COc3cccnc3)nn2C)C1 | -8.79
CN1CCN(Cc2cn3c(n2)CN(Cc2ccc(F)cc2)CC3)CC1 | -9.1
CN1CCN(Cc2cn3c(n2)CN(Cc2cccc(F)c2)CC3)CC1 | -11.9
FC1(F)CCN(Cc2ccccn2)CC12CCN(c1cnccn1)C2 (centres undefined) | -5.08
